The target of the assay is T1, Androgen receptor [646-919] (Human, UniProt P10275).
T1 construct: 646-919
T1 sequence (P10275 whole entry): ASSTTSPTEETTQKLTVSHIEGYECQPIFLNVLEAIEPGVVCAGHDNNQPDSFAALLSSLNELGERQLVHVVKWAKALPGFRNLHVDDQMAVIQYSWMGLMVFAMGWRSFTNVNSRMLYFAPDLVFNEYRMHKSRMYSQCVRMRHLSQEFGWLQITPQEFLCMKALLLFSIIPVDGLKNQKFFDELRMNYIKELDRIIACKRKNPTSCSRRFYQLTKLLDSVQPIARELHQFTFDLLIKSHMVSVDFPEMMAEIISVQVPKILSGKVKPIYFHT
Put plainly: Fluorescence Polarization Assay. The note with it: pH 6.5. Here is the method: For the fluorescence polarization experiments, 5 nM fluorescently labeled Bag-1L (Bag-1L(1-20), fluorescein isothiocyanate (FITC)-[…]; Bag-1L(61-80), FITC-[…]) or SRC-2 peptide (FITC-[…]) was incubated with serially diluted AR-LBD (4 to 0.4 μM) in binding buffer (50 mM NaPO4, pH 6.5, 50 mM KCl, 1 mM DTT) and 10 μM DHT. The samples were then equilibrated for 45 min at ambient temperature. For the competition experiments, 400 to 0.4 nM Bag-1L core (GARRPR) or SRC-2 peptides ([…]) were incubated with 4 μM AR-LBD and 5 nM fluorescent Bag-1 or SRC-2 peptide. Binding was measured using polarization (excitation λ = 485 nm, emission λ = 530 nm) on a Synergy H1 hybrid reader (Biotek).
A general note: Fluorescence polarisation rises when a labelled molecule tumbles more slowly, as on binding a larger partner.

As a reminder, the Kd is the equilibrium constant for the complex coming apart. On to “H-RGAAAGARRPRMKKKTRRRS-OH [Bag-1L (61-80)]”, for which the Kd is 3.3 µM.

Take H-HDSKGQTKLLQLLTTKSDQM-OH: the Kd amounted to 2.8 µM.

As for “H-MAQRGGARRPRGDRERLGSR-OH [Bag-1L (1-20)]”, the Kd turned out to be 2 µM.

For the origin of these results see BindingDB's records for doi:10.1074/jbc.M113.534859 (Karlsruhe Institute of Technology, 2014).
